Data taken from the supplement of paper PMC4977894.
Counter-ions that a name gives are not always drawn. ± gives the standard deviation of the averaged measurements.

Key:
[1] = tested on: Homo sapiens (human subject panel, olfactory perception); test: perceived odor pleasantness rating (rating 0-100); higher = more pleasant
In short: (§1)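 For each molecule, 1 mL diluted in paraffin oil was sniffed at high and low concentrations by 55 healthy human subjects aged 18–50, with the six lowest performers excluded. Presentation order was randomized over ten visits of 100 stimuli. Subjects who reported smelling a stimulus moved a computerized slider from its starting position of 50, and positions were converted to a 0–100 scale. The familiarity, intensity and pleasantness ratings are averaged across subjects.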

[2] = tested on: Homo sapiens (human subject panel, olfactory perception); test: perceived odor familiarity rating (rating 0-100); higher = more familiar
In short: as §1

[3] = tested on: Homo sapiens (human subject panel, olfactory perception); test: perceived odor intensity rating (rating 0-100); higher = stronger perceived smell
In short: as §1

[4] = odor dilution in paraffin oil: 1/1,000
[5] = odor dilution in paraffin oil: 1/100,000
[6] = odor dilution in paraffin oil: 1/10
[7] = odor dilution in paraffin oil: 1/10,000,000

CCCC(=O)OCC(COC(=O)CCC)OC(=O)CCC [Tributyrin]
perceived odor pleasantness rating [1, 4]: 22.2 ± 22
perceived odor pleasantness rating [1, 5]: 39.5 ± 23
perceived odor familiarity rating [2, 4]: 49.9 ± 30
perceived odor familiarity rating [2, 5]: 36.9 ± 30
perceived odor intensity rating [3, 4]: 68.8 ± 28
perceived odor intensity rating [3, 5]: 31.9 ± 29

CCOC(=O)CC(O)(CC(=O)OCC)C(=O)OCC [Triethyl citrate]
perceived odor pleasantness rating [1, 6]: 41.1 ± 19
perceived odor pleasantness rating [1, 4]: 46.2 ± 24
perceived odor familiarity rating [2, 6]: 41.4 ± 29
perceived odor familiarity rating [2, 4]: 26.4 ± 22
perceived odor intensity rating [3, 6]: 31.3 ± 30
perceived odor intensity rating [3, 4]: 20.4 ± 24

NCCc1ccc(O)cc1 [Tyramine]
perceived odor pleasantness rating [1, 6]: 34.7 ± 28
perceived odor pleasantness rating [1, 4]: 58 ± 26
perceived odor familiarity rating [2, 6]: 51 ± 31
perceived odor familiarity rating [2, 4]: 35.4 ± 34
perceived odor intensity rating [3, 6]: 53.2 ± 33
perceived odor intensity rating [3, 4]: 20.4 ± 25

CCCCCCCCCCC(=O)O [Undecanoic acid]
perceived odor pleasantness rating [1, 6]: 22.9 ± 21
perceived odor pleasantness rating [1, 4]: 31.1 ± 24
perceived odor familiarity rating [2, 6]: 45.9 ± 32
perceived odor familiarity rating [2, 4]: 41.9 ± 34
perceived odor intensity rating [3, 6]: 81.8 ± 19
perceived odor intensity rating [3, 4]: 57.4 ± 33

COc1cc(C=O)ccc1OC(C)=O [Vanillin Acetate]
perceived odor pleasantness rating [1, 6]: 74.3 ± 22
perceived odor pleasantness rating [1, 4]: 72.5 ± 22
perceived odor familiarity rating [2, 6]: 69.6 ± 28
perceived odor familiarity rating [2, 4]: 65.3 ± 28
perceived odor intensity rating [3, 6]: 64.3 ± 26
perceived odor intensity rating [3, 4]: 54.6 ± 27

COc1ccc(C=O)cc1OC [Veratraldehyde]
perceived odor pleasantness rating [1, 6]: 75.3 ± 22
perceived odor pleasantness rating [1, 4]: 62.4 ± 22
perceived odor familiarity rating [2, 6]: 75.1 ± 26
perceived odor familiarity rating [2, 4]: 53 ± 28
perceived odor intensity rating [3, 6]: 74.1 ± 23
perceived odor intensity rating [3, 4]: 35.2 ± 29

CCCCC1OC(=O)CC1C (stereo unspecified) [Whiskey lactone]
perceived odor pleasantness rating [1, 4]: 69.7 ± 22
perceived odor pleasantness rating [1, 5]: 60.2 ± 27
perceived odor familiarity rating [2, 4]: 62.2 ± 30
perceived odor familiarity rating [2, 5]: 50.6 ± 33
perceived odor intensity rating [3, 4]: 71.3 ± 23
perceived odor intensity rating [3, 5]: 51.8 ± 29

CC=O [acetaldehyde]
perceived odor pleasantness rating [1, 4]: 45 ± 22
perceived odor pleasantness rating [1, 5]: 54 ± 24
perceived odor familiarity rating [2, 4]: 37.4 ± 29
perceived odor familiarity rating [2, 5]: 41.4 ± 31
perceived odor intensity rating [3, 4]: 40.5 ± 31
perceived odor intensity rating [3, 5]: 21.8 ± 26

CC(=O)O [acetic acid]
perceived odor pleasantness rating [1, 5]: 47.8 ± 24
perceived odor pleasantness rating [1, 7]: 46.1 ± 18
perceived odor familiarity rating [2, 5]: 42 ± 32
perceived odor familiarity rating [2, 7]: 35.5 ± 32
perceived odor intensity rating [3, 5]: 21.2 ± 25
perceived odor intensity rating [3, 7]: 11.8 ± 16

CC(C)=O [acetone]
perceived odor pleasantness rating [1, 6]: 56.6 ± 25
perceived odor pleasantness rating [1, 4]: 51.2 ± 24
perceived odor familiarity rating [2, 6]: 40.6 ± 28
perceived odor familiarity rating [2, 4]: 38.8 ± 31
perceived odor intensity rating [3, 6]: 37 ± 32
perceived odor intensity rating [3, 4]: 30 ± 29

CC(=O)c1ccccc1 [acetophenone]
perceived odor pleasantness rating [1, 4]: 52.8 ± 30
perceived odor pleasantness rating [1, 5]: 52.7 ± 26
perceived odor familiarity rating [2, 4]: 61.3 ± 31
perceived odor familiarity rating [2, 5]: 42.6 ± 30
perceived odor intensity rating [3, 4]: 81.5 ± 17
perceived odor intensity rating [3, 5]: 45.1 ± 29

C=CCOC(=O)CCCCC [allyl hexanoate]
perceived odor pleasantness rating [1, 4]: 71.8 ± 22
perceived odor pleasantness rating [1, 5]: 49.2 ± 19
perceived odor familiarity rating [2, 4]: 64.1 ± 27
perceived odor familiarity rating [2, 5]: 34.4 ± 29
perceived odor intensity rating [3, 4]: 57.3 ± 29
perceived odor intensity rating [3, 5]: 24.9 ± 27

CC(=O)OC(C)(C)Cc1ccccc1 [alpha,alpha-Dimethylphenethyl acetate]
perceived odor pleasantness rating [1, 6]: 51.9 ± 31
perceived odor pleasantness rating [1, 4]: 52.5 ± 21
perceived odor familiarity rating [2, 6]: 48.8 ± 32
perceived odor familiarity rating [2, 4]: 40.3 ± 30
perceived odor intensity rating [3, 6]: 79 ± 17
perceived odor intensity rating [3, 4]: 36.6 ± 30

CCCCCC(C=O)=Cc1ccccc1 [alpha-Amylcinnamaldehyde]
perceived odor pleasantness rating [1, 6]: 43.5 ± 27
perceived odor pleasantness rating [1, 4]: 33.2 ± 26
perceived odor familiarity rating [2, 6]: 45.1 ± 31
perceived odor familiarity rating [2, 4]: 36 ± 27
perceived odor intensity rating [3, 6]: 65.5 ± 29
perceived odor intensity rating [3, 4]: 54.4 ± 32

CC(O)c1ccccc1 (stereo not drawn) [alpha-Methylbenzyl alcohol]
perceived odor pleasantness rating [1, 4]: 50.4 ± 26
perceived odor pleasantness rating [1, 5]: 44.5 ± 23
perceived odor familiarity rating [2, 4]: 45 ± 32
perceived odor familiarity rating [2, 5]: 30.4 ± 30
perceived odor intensity rating [3, 4]: 48.4 ± 30
perceived odor intensity rating [3, 5]: 15.4 ± 16

CC1=CCC2CC1C2(C)C (stereo not drawn) [alpha-pinene]
perceived odor pleasantness rating [1, 4]: 45.6 ± 26
perceived odor pleasantness rating [1, 5]: 54.4 ± 21
perceived odor familiarity rating [2, 4]: 46.6 ± 31
perceived odor familiarity rating [2, 5]: 41.4 ± 29
perceived odor intensity rating [3, 4]: 61.4 ± 26
perceived odor intensity rating [3, 5]: 27.9 ± 30

COc1ccccc1 [anisole]
perceived odor pleasantness rating [1, 4]: 29.3 ± 26
perceived odor pleasantness rating [1, 5]: 50.2 ± 26
perceived odor familiarity rating [2, 4]: 45 ± 34
perceived odor familiarity rating [2, 5]: 35.4 ± 33
perceived odor intensity rating [3, 4]: 75.3 ± 24
perceived odor intensity rating [3, 5]: 30.9 ± 30

O=Cc1ccccc1 [benzaldehyde]
perceived odor pleasantness rating [1, 4]: 61.5 ± 29
perceived odor pleasantness rating [1, 5]: 64.6 ± 22
perceived odor familiarity rating [2, 4]: 61.3 ± 27
perceived odor familiarity rating [2, 5]: 45.3 ± 34
perceived odor intensity rating [3, 4]: 77.4 ± 17
perceived odor intensity rating [3, 5]: 30.6 ± 29

O=C(c1ccccc1)c1ccccc1 [benzophenone]
perceived odor pleasantness rating [1, 6]: 36.2 ± 24
perceived odor pleasantness rating [1, 4]: 57.5 ± 25
perceived odor familiarity rating [2, 6]: 38.6 ± 31
perceived odor familiarity rating [2, 4]: 33.2 ± 28
perceived odor intensity rating [3, 6]: 67.7 ± 27
perceived odor intensity rating [3, 4]: 24.9 ± 29

CC(=O)OCc1ccccc1 [benzyl acetate]
perceived odor pleasantness rating [1, 4]: 60.4 ± 25
perceived odor pleasantness rating [1, 5]: 54.7 ± 20
perceived odor familiarity rating [2, 4]: 52.3 ± 33
perceived odor familiarity rating [2, 5]: 42.3 ± 27
perceived odor intensity rating [3, 4]: 65.8 ± 29
perceived odor intensity rating [3, 5]: 36.3 ± 28

OCc1ccccc1 [benzyl alcohol]
perceived odor pleasantness rating [1, 6]: 46.7 ± 25
perceived odor pleasantness rating [1, 4]: 52.4 ± 20
perceived odor familiarity rating [2, 6]: 55 ± 29
perceived odor familiarity rating [2, 4]: 40.2 ± 25
perceived odor intensity rating [3, 6]: 74.2 ± 18
perceived odor intensity rating [3, 4]: 45.4 ± 26

NCCC(=O)O [beta-Alanine]
perceived odor pleasantness rating [1, 6]: 50.1 ± 22
perceived odor pleasantness rating [1, 4]: 50.2 ± 26
perceived odor familiarity rating [2, 6]: 35.9 ± 30
perceived odor familiarity rating [2, 4]: 40.9 ± 30
perceived odor intensity rating [3, 6]: 38.4 ± 28
perceived odor intensity rating [3, 4]: 33.9 ± 25

CC(=O)/C=C/C1=C(C)CCCC1(C)C [beta-Ionone]
perceived odor pleasantness rating [1, 4]: 49.2 ± 27
perceived odor pleasantness rating [1, 5]: 62.6 ± 25
perceived odor familiarity rating [2, 4]: 52.4 ± 30
perceived odor familiarity rating [2, 5]: 49.8 ± 31
perceived odor intensity rating [3, 4]: 69.7 ± 25
perceived odor intensity rating [3, 5]: 50.6 ± 32

CCCCO [butanol]
perceived odor pleasantness rating [1, 5]: 42.7 ± 25
perceived odor pleasantness rating [1, 7]: 49.7 ± 26
perceived odor familiarity rating [2, 5]: 35.8 ± 32
perceived odor familiarity rating [2, 7]: 27 ± 30
perceived odor intensity rating [3, 5]: 19.8 ± 23
perceived odor intensity rating [3, 7]: 10.7 ± 19

CCCCOC(C)=O [butyl acetate]
perceived odor pleasantness rating [1, 4]: 55.6 ± 27
perceived odor pleasantness rating [1, 5]: 61.1 ± 19
perceived odor familiarity rating [2, 4]: 67.5 ± 29
perceived odor familiarity rating [2, 5]: 43.7 ± 31
perceived odor intensity rating [3, 4]: 76.5 ± 18
perceived odor intensity rating [3, 5]: 31.6 ± 24

CCCCOC(=O)CCC [butyl butyrate]
perceived odor pleasantness rating [1, 4]: 38.1 ± 26
perceived odor pleasantness rating [1, 5]: 48 ± 24
perceived odor familiarity rating [2, 4]: 49.7 ± 28
perceived odor familiarity rating [2, 5]: 41.3 ± 30
perceived odor intensity rating [3, 4]: 57.9 ± 27
perceived odor intensity rating [3, 5]: 25.5 ± 29

CCCC=O [butyraldehyde]
perceived odor pleasantness rating [1, 4]: 17.7 ± 18
perceived odor pleasantness rating [1, 5]: 32.2 ± 21
perceived odor familiarity rating [2, 4]: 51.1 ± 29
perceived odor familiarity rating [2, 5]: 41.8 ± 31
perceived odor intensity rating [3, 4]: 83.4 ± 15
perceived odor intensity rating [3, 5]: 51.9 ± 28

CCCC(=O)O [butyric acid]
perceived odor pleasantness rating [1, 4]: 21.1 ± 27
perceived odor pleasantness rating [1, 5]: 16 ± 18
perceived odor familiarity rating [2, 4]: 53.1 ± 31
perceived odor familiarity rating [2, 5]: 50.2 ± 34
perceived odor intensity rating [3, 4]: 86.8 ± 13
perceived odor intensity rating [3, 5]: 76.8 ± 23

CCCCCC(=O)O [caproic acid]
perceived odor pleasantness rating [1, 4]: 14.3 ± 19
perceived odor pleasantness rating [1, 5]: 19.4 ± 19
perceived odor familiarity rating [2, 4]: 46.7 ± 33
perceived odor familiarity rating [2, 5]: 45.1 ± 29
perceived odor intensity rating [3, 4]: 84.3 ± 15
perceived odor intensity rating [3, 5]: 66.5 ± 28

C=C(C)C1CC=C(C)C(OC(C)=O)C1 (stereo unspecified) [carvyl acetate]
perceived odor pleasantness rating [1, 4]: 27.2 ± 22
perceived odor pleasantness rating [1, 5]: 44.1 ± 23
perceived odor familiarity rating [2, 4]: 43.5 ± 32
perceived odor familiarity rating [2, 5]: 37.2 ± 30
perceived odor intensity rating [3, 4]: 75 ± 25
perceived odor intensity rating [3, 5]: 38.6 ± 33

OC/C=C/c1ccccc1 [cinnamyl alcohol]
perceived odor pleasantness rating [1, 4]: 47.4 ± 31
perceived odor pleasantness rating [1, 5]: 42.9 ± 28
perceived odor familiarity rating [2, 4]: 52.6 ± 34
perceived odor familiarity rating [2, 5]: 53.7 ± 33
perceived odor intensity rating [3, 4]: 75.8 ± 21
perceived odor intensity rating [3, 5]: 60.3 ± 28

CCCCCC/C=C\CO [cis-2-Nonen-1-ol]
perceived odor pleasantness rating [1, 4]: 34.7 ± 25
perceived odor pleasantness rating [1, 5]: 36 ± 21
perceived odor familiarity rating [2, 4]: 46.3 ± 30
perceived odor familiarity rating [2, 5]: 40.8 ± 30
perceived odor intensity rating [3, 4]: 77.9 ± 21
perceived odor intensity rating [3, 5]: 54.7 ± 32

CC/C=C\CCO [cis-3-Hexen-1-ol]
perceived odor pleasantness rating [1, 4]: 51 ± 31
perceived odor pleasantness rating [1, 5]: 60 ± 22
perceived odor familiarity rating [2, 4]: 69.6 ± 30
perceived odor familiarity rating [2, 5]: 60.5 ± 30
perceived odor intensity rating [3, 4]: 81.9 ± 16
perceived odor intensity rating [3, 5]: 39.7 ± 28

CC/C=C\CCOC(=O)c1ccccc1 [cis-3-Hexenyl benzoate]
perceived odor pleasantness rating [1, 4]: 40.8 ± 19
perceived odor pleasantness rating [1, 5]: 51.2 ± 13
perceived odor familiarity rating [2, 4]: 36.3 ± 28
perceived odor familiarity rating [2, 5]: 34 ± 23
perceived odor intensity rating [3, 4]: 40.4 ± 31
perceived odor intensity rating [3, 5]: 28.1 ± 26

CC/C=C\CCOC(=O)C(C)C [cis-3-Hexenyl isobutyrate]
perceived odor pleasantness rating [1, 4]: 47.1 ± 29
perceived odor pleasantness rating [1, 5]: 40.8 ± 22
perceived odor familiarity rating [2, 4]: 55.4 ± 31
perceived odor familiarity rating [2, 5]: 40.1 ± 30
perceived odor intensity rating [3, 4]: 73.3 ± 25
perceived odor intensity rating [3, 5]: 30 ± 28

CC/C=C\CCOC(=O)C(C)O (stereo not drawn) [cis-3-Hexenyl lactate]
perceived odor pleasantness rating [1, 4]: 51.7 ± 26
perceived odor pleasantness rating [1, 5]: 46.7 ± 22
perceived odor familiarity rating [2, 4]: 57.1 ± 31
perceived odor familiarity rating [2, 5]: 38.6 ± 30
perceived odor intensity rating [3, 4]: 67.2 ± 29
perceived odor intensity rating [3, 5]: 30.3 ± 28
